Experiment: Solubility of LiPO2F2, LiF and LiPF6 in organic solvents

Solubility (in words) (in acetone)	Solubility (in words) (in dimethoxyethane)	Solubility (in words) (in dimethyl carbonate and propylene carbonate)	Structure (SMILES)	Solubility (in words) (in aprotic organic solvents)
very low solubility	at most in negligible amounts	essentially insoluble	[F-].[Li+] [LiF]	only very sparingly soluble
			F[P-](F)(F)(F)(F)F.[Li+] [LiPF6]	comparably good solubility
